# Ends that are not written are not given here.
# Legend:
# [1] = test system: cultured rat motor neurons infected with adeno-Mfn2 K109A; assay: Motor neurons infected with adeno-Mfn2 K109A; type: cell-based; details: 1 μM for 24 hours vs TAT control
# Description: The efficacy of TAT-367-384Gly to correct mitochondrial pathology induced by a GTPase-defective Mfn2 mutant was examined in the CMT2A-relevant cell type, motor neurons. Motor neurons were isolated from E17 Sprague-Dawley rats and cultured as described in Wang et al., 2013, Hum Mol Genet 22:4706-4719. After 10 days in culture, neurons were infected twice, 8 hours apart, with 50 MOI of adenoviral WT-Mfn2 or K109A Mfn2 and treated with 1 μM TAT-367-384 Gly or control TAT peptide for 24 hours. Mitochondria of formalin-fixed nerons were labeled with anti-TOM20 (Santa Cruz Biotechnology). Neurons were stained with Hoechst 33342. Laser confocal imaging using a 63× oil objective was used to identify isolated mitochondria for determination of aspect ratio.
# Representative anti-TOM20/Hoechst images of formalin-fixed cultured neurons infected with adeno-Mfn2K109A (FIG. 15A) or adeno-WT Mfn2 (FIG. 15B) and treated for 24 h with 1 μM TAT control (Ctrl) or TAT-367-384Gly minipeptide. Scale bars are 10 microns. N=20-23 per treatment group; *=P<0.05 vs Ctrl (Student's t-test).
# [2] = test system: hippocampal and cortical neurons carrying Mfn2 T105M fl/st; assay: Hippocampal and cortical neurons with induced Mfn2 T105M; type: cell-based, mouse; details: Mfn2 T105M induced by adeno-Cre; 1 μM for 24 hours
# Description: Finally, to test the efficacy of fusion promotion by conformational manipulation in a model of a naturally-occurring human CMT2A mutation, hippocampal and cortical neurons were cultured from mouse pups carrying the conditional Mfn2 T105M fl/st expression allele.
# Hippocampal and cortical neurons were prepared from individual P0-P1 mouse pups using a modification of methods described for rat neuronal culture (Mennerick et al., 1995, J Neurophysiol, 73:320-332). Mouse pups were genotyped after the fact to determine presence or absence of the MFN2*T105M transgene; neurons derived from mice lacking the transgene were designated as normal controls. […] Immunoblot of Mfn2 expression in T105M fl/st cortical neurons 72 h after adeno-Cre or adeno-β-gal (Ctrl) is shown in FIG. 16B with quantitative data to the right (n=4). […]
# Merged live confocal images of cultured neurons without (no Cre) and with (+Cre) Mfn2 T105M induction, and in Mfn2 T105M-induced neurons 24 h after addition of 1 μM TAT-367-384Gly are shown in FIG. 16C. […] Quantitative data are provided in FIG. 16E; each point is result from one of 3 independently-established Mfn2 T105M neuronal cultures, each with 3 biological replicates of ˜20 neurons. *=P<0.01 vs no Cre; #=P<0.01 vs T105M+Cre.
sequence,measurement,setting,value
QIAEAVRGIMDSLHMAARGGYGRKKRRQRRR [TAT-367-384Gly],mitochondrial fragmentation (aspect ratio),[1],fully normalized
same,"neuronal mitochondrial dysmorphology with fragmentation, partial depolarization and clumping",[2],largely reversed these abnormalities

# From US10578610B2, “Peptide regulators of mitochondrial fusion and methods of use” (priority 2016, dated 2020)
